Results taken from ChEMBL document CHEMBL5257023, “Identification of leads for antiproliferative activity on MDA-MB-435 human breast cancer cells through pharmacophore and CYP1A1-mediated metabolism” (Eur J Med Chem, 2016).

System: MCF7
Test: Anticancer activity against human MCF7 cells assessed as inhibition of cell growth
Type: functional, cell-based

Row | SMILES | IC50 [µM]
1 | COc1cc(-c2nc3cc(F)ccc3s2)cc(O)c1OC | 0.653
2 | COc1cc(-c2nc3cc(F)ccc3s2)cc(OC)c1OC | 0.0019
3 | c1ccc2sc(-c3ccc4c(c3)OCO4)nc2c1 | 57.8
4 | COc1ccc(-c2nc3cc(F)ccc3s2)cc1I | 0.82
5 | COc1cc(OC)cc(-c2nc3cc(F)ccc3s2)c1 | 1.23
6 | O=c1c(-c2cccc([N+](=O)[O-])c2)coc2ccccc12 | 7.9
7 | COc1ccc(-c2coc3cc(F)c(F)cc3c2=O)cc1OC | 41.5
8 | COc1ccc(-c2coc3c(F)cccc3c2=O)cc1OC | 75.5
9 | COc1ccc(-c2coc3c(F)c(F)ccc3c2=O)cc1OC | 47.2
10 | O=c1c(-c2ccc(Cl)cc2)coc2ccccc12 | 64.9
11 | O=c1c(-c2ccc3c(c2)OCO3)coc2ccc(F)cc12 | 60
12 | COc1ccc(-c2coc3cc(F)ccc3c2=O)cc1 | 43.8
13 | COc1ccc(-c2coc3cc(F)ccc3c2=O)cc1OC | 90.6
14 | COc1ccc(-c2coc3ccccc3c2=O)cc1OC | 88.1
15 | Cc1cc(-c2nc3cc(F)ccc3s2)ccc1N | 0.0001
16 | COc1ccc(-c2nc3cc(F)ccc3s2)c(OC)c1OC | 0.023
17 | Oc1ccc(-c2nc3cc(F)ccc3s2)cc1O | 0.72
18 | COc1ccc(-c2coc3ccc(F)cc3c2=O)cc1OC | 93.1
19 | COc1ccc(-c2coc3ccccc3c2=O)cc1 | 81.4
20 | O=c1c(-c2ccc(Br)cc2)coc2ccccc12 | 8.8
21 | COc1ccc(-c2coc3c(F)cc(F)cc3c2=O)cc1OC | 46.7

The next lines start with the values.

Row | IC50 [µM] | SMILES
22 | 0.005 | COc1ccc(-c2nc3c(F)cccc3s2)cc1OC
23 | 0.065 | COCOc1ccc(-c2nc3cc(F)ccc3s2)cc1OC
24 | 0.08 | CCOc1cc(-c2nc3cc(F)ccc3s2)ccc1OC
25 | 0.048 | COc1ccc(-c2nc3cc(F)ccc3s2)cc1C
26 | 52.7 | COc1ccc(-c2nc3ccccc3s2)cc1OC
27 | 0.87 | COc1ccc(-c2nc3cc(F)ccc3s2)cc1F
28 | 0.76 | COc1ccc(-c2nc3cc(F)ccc3s2)cc1Cl
29 | 0.85 | COc1ccc(-c2nc3cc(F)ccc3s2)cc1Br
30 | 27.9 | COc1ccc(-c2nc3cc(Cl)ccc3s2)cc1OC
31 | 0.062 | COc1ccc(-c2nc3ccc(F)cc3s2)cc1OC
32 | 13.6 | COc1ccc(-c2nc3cc(Br)ccc3s2)cc1OC
